The source made the active and inactive calls. The rule behind the calls is not given here.
What was measured:
[1] = molecular target: Voltage-gated inwardly rectifying potassium channel KCNH2 (Homo sapiens, UniProt Q12809)
Description: Displacement of radiolabeled MK-499 from human ERG channel

[2] = molecular target: Somatostatin receptor type 3 (Mus musculus) (UniProt P30935); assay: Inhibition of mouse SSTR3 transfected in CHO cells assessed as inhibition of SRIF-induced reduction of cAMP accumulation after 45 mins relative to control; assay type: functional, cell-based; parameters: concentration or dose not given beside the values
Somatostatin receptor type 3 (Mus musculus), sequence (P30935 whole entry): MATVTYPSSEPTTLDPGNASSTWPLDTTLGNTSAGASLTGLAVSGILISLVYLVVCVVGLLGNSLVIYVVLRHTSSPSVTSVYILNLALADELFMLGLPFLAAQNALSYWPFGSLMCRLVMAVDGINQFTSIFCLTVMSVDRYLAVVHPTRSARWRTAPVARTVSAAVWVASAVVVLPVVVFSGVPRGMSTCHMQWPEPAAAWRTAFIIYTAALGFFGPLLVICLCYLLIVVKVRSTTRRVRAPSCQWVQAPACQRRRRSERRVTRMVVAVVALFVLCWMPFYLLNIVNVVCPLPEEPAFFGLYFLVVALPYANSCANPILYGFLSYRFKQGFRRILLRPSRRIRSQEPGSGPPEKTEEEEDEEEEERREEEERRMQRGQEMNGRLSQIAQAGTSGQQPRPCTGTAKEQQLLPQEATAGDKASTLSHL

[3] = molecular target: T1, Somatostatin receptor type 3 (Homo sapiens, UniProt P32745)
T1 sequence (P32745 whole entry): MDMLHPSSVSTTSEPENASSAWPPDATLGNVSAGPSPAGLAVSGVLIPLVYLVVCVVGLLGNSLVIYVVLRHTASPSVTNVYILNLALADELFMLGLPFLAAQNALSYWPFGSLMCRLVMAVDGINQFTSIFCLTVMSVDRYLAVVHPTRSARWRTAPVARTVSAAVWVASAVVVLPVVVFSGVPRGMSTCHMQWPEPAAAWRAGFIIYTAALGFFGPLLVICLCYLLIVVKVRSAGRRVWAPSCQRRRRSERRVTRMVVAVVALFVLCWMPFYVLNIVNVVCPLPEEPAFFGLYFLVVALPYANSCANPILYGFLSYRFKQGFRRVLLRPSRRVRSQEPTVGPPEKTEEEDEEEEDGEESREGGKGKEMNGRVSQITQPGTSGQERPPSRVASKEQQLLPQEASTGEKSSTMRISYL
Description: Inhibition of human SSTR3 transfected in CHO cells assessed as inhibition of SRIF-induced reduction of cAMP accumulation after 45 mins

[4] = molecular target: T1, Somatostatin receptor type 3; assay: biochemical
Description: Displacement of [125I]SS-28 from human SSTR3 transfected in CHO cells after 60 to 90 mins

[5] = molecular target: T2, Somatostatin receptor type 3 (Mus musculus, UniProt P30935)
T2 sequence (P30935 whole entry): as the sequence (P30935 whole entry) above

Mus musculus [6] = assay: Antidiabetic activity in C57BL/6N mouse assessed as reduction of blood glucose excursion at 1 mg/kg by OGTT ( Rvb = 91%); assay type: functional
Mus musculus [7] = assay: Antidiabetic activity in po dosed C57BL/6 mouse assessed as reduction of glucose excursion by OGTT; assay type: functional, organism-based
[8] = molecular target: Somatostatin receptor type 5 (Homo sapiens) (UniProt P35346); assay: Inhibition of human SSTR5 transfected in CHO cells assessed as inhibition of SRIF-induced reduction of cAMP accumulation at 5 uM after 45 mins; assay type: functional, cell-based
Somatostatin receptor type 5 (Homo sapiens), sequence (P35346 whole entry): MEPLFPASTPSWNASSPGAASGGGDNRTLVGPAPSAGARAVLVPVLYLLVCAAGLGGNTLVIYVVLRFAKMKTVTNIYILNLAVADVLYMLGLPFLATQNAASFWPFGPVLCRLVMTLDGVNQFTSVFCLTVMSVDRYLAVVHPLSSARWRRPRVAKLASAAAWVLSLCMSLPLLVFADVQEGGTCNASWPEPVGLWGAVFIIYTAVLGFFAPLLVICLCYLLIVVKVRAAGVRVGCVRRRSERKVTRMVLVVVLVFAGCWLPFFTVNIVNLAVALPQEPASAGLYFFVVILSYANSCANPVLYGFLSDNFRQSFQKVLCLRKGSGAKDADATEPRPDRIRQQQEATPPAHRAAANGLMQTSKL

Mus musculus [9] = assay: Antidiabetic activity in C57BL/6N mouse assessed as reduction of blood glucose level at 0.01 to 1 mg/kg, po measured over 5 hrs; assay type: functional, organism-based
Mus musculus [10] = assay: Antidiabetic activity in C57BL/6 mouse assessed as reduction of glucose excursion at 1 mg/kg, po by OGTT; assay type: functional; parameters: scale not given: the % may be the effect or the level left
[11] = molecular target: Somatostatin receptor type 4 (Homo sapiens) (UniProt P31391); details: CHO, 20 uM
Somatostatin receptor type 4 (Homo sapiens), sequence (P31391 whole entry): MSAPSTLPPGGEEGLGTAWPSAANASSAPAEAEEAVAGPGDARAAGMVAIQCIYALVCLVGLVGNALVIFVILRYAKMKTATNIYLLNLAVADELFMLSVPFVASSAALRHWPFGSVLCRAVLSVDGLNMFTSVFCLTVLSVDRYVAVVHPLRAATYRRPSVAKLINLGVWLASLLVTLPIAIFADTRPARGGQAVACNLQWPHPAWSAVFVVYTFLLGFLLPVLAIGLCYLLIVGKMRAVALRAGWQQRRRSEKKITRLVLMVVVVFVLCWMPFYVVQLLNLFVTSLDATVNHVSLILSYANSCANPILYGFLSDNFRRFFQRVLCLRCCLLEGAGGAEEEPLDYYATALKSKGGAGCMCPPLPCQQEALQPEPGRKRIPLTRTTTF

Mus musculus [12] = assay: Antidiabetic activity in SSTR3-knockout mouse assessed as reduction of blood glucose excursion at 1 mg/kg by OGTT; assay type: functional; parameters: scale not given: the % may be the effect or the level left
in vivo [13] = details: rat, po, 2 mg/kg
[14] = Plasma concentration in C57BL/6 mouse at 10 mg/kg, po measured after 2.5 hrs; assay type: ADME, organism-based; parameters: dose 10 mg/kg, route oral
in vivo [15] = details: rat, plasma, po, 2 mg/kg
[16] = Volume of distribution at steady state in mouse at 10 mg/kg, po and 4 mg/kg, iv; details: in vivo
[17] = Half life in rat at 1 mg/kg, iv; details: in vivo
[18] = Half life in mouse at 4 mg/kg, iv; details: in vivo
Mus musculus [19] = assay: Antidiabetic activity in C57BL/6 mouse assessed as reduction of glucose excursion at 10 mg/kg, po by ipGTT; assay type: functional; parameters: scale not given: the % may be the effect or the level left
in vivo [20] = details: mouse, po, 10 mg/kg
[21] = molecular target: T2, Somatostatin receptor type 3; assay: biochemical
Description: Displacement of [125I]SS-28 from mouse SSTR3 transfected in CHO cells after 60 to 90 mins

[22] = Clearance in mouse at 4 mg/kg, iv; details: in vivo
[23] = Volume of distribution at steady state in rat at 2 mg/kg, po and 1 mg/kg, iv; details: in vivo
in vivo [24] = details: mouse, plasma, po, 10 mg/kg
[25] = Clearance in rat at 1 mg/kg, iv; details: in vivo
Mus musculus [26] = assay: Antidiabetic activity in C57BL/6N mouse assessed as reduction of blood glucose level at 10 mg/kg, po measured after 60 mins post administration; assay type: functional, organism-based; parameters: dose 10 mg/kg
in vivo [27] = details: dog, po, 2 mg/kg
[28] = Clearance in dog at 1 mg/kg, iv; details: in vivo
[29] = Volume of distribution at steady state in rhesus monkey at 1 mg/kg, iv and 2 mg/kg, po; details: in vivo
in vivo [30] = details: dog, plasma, po, 2 mg/kg
in vivo [31] = details: rhesus monkey, plasma, po, 2 mg/kg
[32] = Half life in dog at 1 mg/kg, iv; details: in vivo
[33] = Clearance in rhesus monkey at 1 mg/kg, iv; details: in vivo
[34] = Half life in rhesus monkey at 1 mg/kg, iv; details: in vivo
[35] = Volume of distribution at steady state in dog at 1 mg/kg, iv and 2 mg/kg, po; details: in vivo
in vivo [36] = details: rhesus monkey, po, 2 mg/kg

Voltage-gated inwardly rectifying potassium channel KCNH2, sequence (Q12809 whole entry): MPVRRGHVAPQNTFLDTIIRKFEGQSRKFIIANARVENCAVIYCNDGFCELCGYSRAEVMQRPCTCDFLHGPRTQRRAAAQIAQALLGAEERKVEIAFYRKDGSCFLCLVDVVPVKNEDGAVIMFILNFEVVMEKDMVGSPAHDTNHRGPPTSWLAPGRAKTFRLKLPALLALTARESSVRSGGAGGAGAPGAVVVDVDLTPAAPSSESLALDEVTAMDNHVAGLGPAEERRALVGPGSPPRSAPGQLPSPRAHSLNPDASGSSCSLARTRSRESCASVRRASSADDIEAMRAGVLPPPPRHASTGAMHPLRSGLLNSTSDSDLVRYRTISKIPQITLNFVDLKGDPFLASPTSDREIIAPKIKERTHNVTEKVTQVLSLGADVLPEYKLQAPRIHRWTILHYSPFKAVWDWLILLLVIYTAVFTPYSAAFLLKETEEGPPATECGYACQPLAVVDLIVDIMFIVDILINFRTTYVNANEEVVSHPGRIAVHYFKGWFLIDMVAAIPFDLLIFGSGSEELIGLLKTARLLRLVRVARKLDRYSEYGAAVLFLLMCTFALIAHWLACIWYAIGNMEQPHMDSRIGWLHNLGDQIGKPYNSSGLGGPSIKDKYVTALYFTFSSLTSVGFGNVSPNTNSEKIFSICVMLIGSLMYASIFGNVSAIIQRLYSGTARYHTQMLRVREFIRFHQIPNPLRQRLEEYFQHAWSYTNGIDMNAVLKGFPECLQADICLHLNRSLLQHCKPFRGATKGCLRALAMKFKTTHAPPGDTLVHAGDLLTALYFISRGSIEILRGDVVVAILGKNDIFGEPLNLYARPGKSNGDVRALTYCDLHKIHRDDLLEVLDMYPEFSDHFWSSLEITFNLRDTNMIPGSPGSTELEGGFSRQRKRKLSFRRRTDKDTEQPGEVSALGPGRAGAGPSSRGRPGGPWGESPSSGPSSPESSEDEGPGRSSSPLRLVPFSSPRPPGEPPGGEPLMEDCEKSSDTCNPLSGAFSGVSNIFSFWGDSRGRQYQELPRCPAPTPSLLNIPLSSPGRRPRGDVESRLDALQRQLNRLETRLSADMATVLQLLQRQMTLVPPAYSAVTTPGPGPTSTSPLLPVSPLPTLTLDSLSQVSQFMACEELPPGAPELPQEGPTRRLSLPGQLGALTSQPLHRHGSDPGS

| SMILES | Ki [1] | inhibition [2] | IC50 [3] | IC50 [4] | IC50 [5] | Activity (Mus musculus [10]) | concentration at 2.5 h [14] | Activity (Mus musculus [19]) | IC50 [21] | further results |
| --- | --- | --- | --- | --- | --- | --- | --- | --- | --- | --- |
| Fc1ccc(-c2c[nH]c([C@H]3Cc4c([nH]c5ccccc45)C(c4ccccc4)(c4ccccc4)N3)n2)cc1 | 44 nM | 101% | 7.3 nM | 0.76 nM | 2.4 nM | – | – | – | – | – |
| Cc1nc([C@]2(c3cnn(C)c3)N[C@@H](c3nc(-c4ccc(F)cc4)c[nH]3)Cc3c2[nH]c2ccccc32)no1 | – | 87% | – | – | – | 109% | – | – | – | inhibition in vivo at 1 mg/kg (Mus musculus [6]): 112%; Activity (Mus musculus [7]): Dose-dependent effect; inhibition [8]: 34%; Activity (Mus musculus [9]): inactive; inhibition [11]: 42%; Activity (Mus musculus [12]): 28% |
| Cc1nc([C@H]2N[C@@H](c3nc(-c4ccc(F)cc4)c[nH]3)Cc3c2[nH]c2ccccc32)no1 | 385 nM | 103% | 19 nM | 19 nM | 18 nM | – | – | – | – | – |
| Cn1cc([C@@H]2N[C@@H](c3nc(-c4ccc(F)cc4)c[nH]3)Cc3c2[nH]c2ccccc32)cn1 | 2190 nM | 66% | 33 nM | 7.2 nM | 26 nM | – | 1.6 µM | 84% | 4.8 nM | bioavailability (in vivo [13]): 47%; AUC(0-t) (in vivo [15]): 1.38 µM·h; Vd [16]: 10.8 L/kg; half-life [17]: 2.26 h; half-life [18]: 2.24 h; bioavailability (in vivo [20]): 100%; clearance [22]: 5.98 L/h/kg; Vd [23]: 4.59 L/kg; AUC(0-t) (in vivo [24]): 4.11 µM·h; clearance [25]: 1.52 L/h/kg |
| Cc1nc([C@@]2(c3cnn(C)c3)N[C@@H](c3nc(-c4ccc(F)cc4)c[nH]3)Cc3c2[nH]c2ccccc32)no1 | – | 130% | – | – | – | 63% | – | – | – | – |
| Cn1cc([C@H]2N[C@@H](c3nc(-c4ccc(F)cc4)c[nH]3)Cc3c2[nH]c2ccccc32)cn1 | 300 nM | 67% | 9.3 nM | 6.9 nM | 4.4 nM | – | 1.2 µM | 91% | 4 nM | – |
| Fc1ccc(-c2c[nH]c([C@H]3Cc4c([nH]c5ccccc45)[C@@H](C4CCOCC4)N3)n2)cc1 | – | 108% | 5.7 nM | 2.8 nM | 26 nM | – | 4.6 µM | 79% | 1.7 nM | – |
| Cn1cc(C2(c3cnn(C)c3)N[C@@H](c3nc(-c4ccc(F)cc4)c[nH]3)Cc3c2[nH]c2ccccc32)cn1 | – | 113% | 0.7 nM | 0.74 nM | 0.48 nM | 68% | – | – | 0.46 nM | – |
| Cc1nc([C@@]2(c3cnn(C)c3)N[C@H](c3nc(-c4ccc(F)cc4)c[nH]3)Cc3c2[nH]c2ccccc32)no1 | – | 92% | – | – | – | 81% | – | – | – | – |
| Cc1nc(C2(c3noc(C)n3)N[C@@H](c3nc(-c4ccc(F)cc4)c[nH]3)Cc3c2[nH]c2ccccc32)no1 | – | 133% | 1.2 nM | 0.97 nM | 1.3 nM | 71% | – | – | 0.59 nM | – |
| c1ccc(-c2c[nH]c([C@H]3Cc4c([nH]c5ccccc45)[C@@H](C4CCOCC4)N3)n2)cc1 | – | 98% | 11 nM | – | – | – | 3.8 µM | 75% | – | – |
| Cc1nc([C@]2(c3cnn(C)c3)N[C@H](c3nc(-c4ccc(F)cc4)c[nH]3)Cc3c2[nH]c2ccccc32)no1 | – | 68% | – | – | – | 80% | – | – | – | – |
| Cc1cnc(C(=O)NCCc2ccc(S(=O)(=O)NC(=O)NC3CCCCC3)cc2)cn1 | – | – | – | – | – | – | – | – | – | Activity (Mus musculus [26]): Active |
| Cc1nc([C@@H]2N[C@@H](c3nc(-c4ccc(F)cc4)c[nH]3)Cc3c2[nH]c2ccccc32)no1 | 2210 nM | 92% | 58 nM | 9.2 nM | 29 nM | – | 0.2 µM | 87% | 8.1 nM | bioavailability (in vivo [27]): 67%; bioavailability (in vivo [13]): 58%; clearance [28]: 0.107 L/h/kg; Vd [29]: 1.75 L/kg; AUC(0-t) (in vivo [30]): 27.6 µM·h; AUC(0-t) (in vivo [31]): 12.4 µM·h; half-life [32]: 6.69 h; clearance [33]: 0.167 L/h/kg; half-life [34]: 8.08 h; AUC(0-t) (in vivo [15]): 4.36 µM·h; Vd [16]: 7.21 L/kg; half-life [17]: 8.14 h; half-life [18]: 2.58 h; bioavailability (in vivo [20]): 76%; Vd [35]: 0.87 L/kg; clearance [22]: 2.39 L/h/kg; Vd [23]: 5.83 L/kg; AUC(0-t) (in vivo [24]): 7.73 µM·h; clearance [25]: 0.58 L/h/kg; bioavailability (in vivo [36]): 51% |

— ChEMBL document CHEMBL2203114, “The Discovery of MK-4256, a Potent SSTR3 Antagonist as a Potential Treatment of Type 2 Diabetes” (ACS Med Chem Lett, 2012)
